The source of these data is patent EP3138565A1, “METHOD FOR TREATING A TUMOUR DISEASE AND METHOD FOR SELECTIVELY INHIBITING TUMOUR CELL GROWTH USING A QUINOXALINE-1,4-DIOXIDE DERIVATIVE” (OOO "A-Laboratory", priority 2014, dated 2015).

Data set [1] concerns K562/4. The data set is described as follows: Antiproliferative activity on multidrug-resistant subline expressing p-glycoprotein. The class given is cell-based. Particulars: for IC50: Homo sapiens, K562/4 subline with multidrug resistance caused by p-gp expression; for RI, resistance index: RI = IC50(K562/4)/IC50(K562). The method, then:
(§1) Comparative study of cytotoxicity of 6,7-difluoro-3-phenyl-2-cyanoquinoxaline 1,4-dioxide (compound of formula 7), which is the subject if the present invention, was performed also on a culture of tumor […] leukemia K562 cells and its resistant subline K562/4 expressing p-glycoprotein. Expression of such ATP-dependent transporters on cell surface is one of the most common mechanisms of the multidrug resistance development in tumors [Shtil A.A., Grinchuk T.M., et. al. Int. J. Oncol., 2000, 17, 387]. Data of these studies, including the IC50 values of reference compounds, the previously described quinoxaline 1,4-dioxide of formula 6, and doxorubicin, as well as the resistance index value (RI is the ratio between the IC50 values of the K562/4 subline and IC50 of the K562 line) are presented in Table 2.

For data set [2], the system named is normal human embryo lung fibroblasts (HELF). The data set is described as follows: MTT test, cytotoxicity on non-tumor cells (selectivity control). Particulars: HELF; non-tumor human embryo lung fibroblasts, MTT test; read-out: IC50, µM HEFL. The class given is cell-based. The method, then: (§2) Comparative study of cytotoxicity of 6,7-difluoro-3-phenyl-2-cyanoquinoxaline 1,4-dioxide (compound 7 obtained according to a method described in the Example 1) and the previously known 6,7-nonsubstituted analogue 6 (obtained earlier by a method described by [Hu Y. etal. Molecules 2012, 17, 9683]) was performed in in vitro tests on cells of human solid tumors, as well as normal human embryo lung fibroblasts (HELF) to control selectivity. IC50 values were determined by the MTT test according to a protocol described in the literature [Mossman T.J. Immunol. Methods, 1983, 65, 55]. Table 1. Antiproliferative activity (IC50, µM) of quinoxaline 1,4-dioxides 6 and 7 with respect to human solid tumor cells and non-tumor human embryo lung fibroblasts (HELF)
Background: Formazan colour is commonly taken as a measure of viable cells.

For data set [3], the system named is MSF7. The data set is described as follows: MTT test, antiproliferative activity. The class given is cell-based. Particulars: MSF7 human solid tumor cells. The method, then: as §2
The subject of data set [4] is HCT116. The data set is described as follows: MTT test, antiproliferative activity. It counts as cell-based, human. Particulars: for IC50: HCT-116, HCT116 human solid tumor cells, MTT test. The method, then: as §2
Data set [5] has as its system K562 leukemic cells. Kind of data set: Antiproliferative activity on leukemia cells. The class given is cell-based. To be noted: Homo sapiens. As to the method:
as §1

Data set [6] can be described thus: MTT test, cytotoxicity on non-tumor cells (selectivity control). The class given is cell-based. Particulars: tumor cells of different genesis vs non-tumor human fibroblasts; read-out: cytotoxicity with respect to tumor cells higher than against the non-tumor human fibroblast cells (selectivity). The method, then: as §2
The subject of data set [7] is human tumor cells of various genesis. Kind of data set: Apoptosis induction in tumor cells under normoxia. The class given is cell-based. To be noted: submicromolar concentrations, all studied types of human tumor cells.
In data set [8] the test system is animal tumor models. Kind of data set: Antitumor effect on animal tumor models. The class given is in vivo. To be noted: no data given.

On to `N#Cc1c(-c2ccccc2)[n+]([O-])c2ccccc2[n+]1[O-]` [Compound 6, reference compound], for which the IC50 (in general, the concentration at which inhibition is half-maximal) is 33 ± 4 µM in data set [1]; 25.2 ± 5.1 µM in data set [2]; 15.5 ± 0.98 µM in data set [3]; 8.4 ± 0.8 µM in data set [4]; 5.2 ± 0.78 µM in data set [5]. For the same molecule, the “RI, resistance index” value in data set [1] was 6.3.

As for `N#Cc1c(-c2ccccc2)[n+]([O-])c2cc(F)c(F)cc2[n+]1[O-]` [Compound 7, 6,7-difluoro-3-phenyl-2-cyanoquinoxaline 1,4-dioxide], the IC50 in data set [1] turned out to be 0.3 ± 0.05 µM; in data set [2], 44 ± 1.9 µM; in data set [3], 0.1 ± 0.02 µM; in data set [4], 0.6 ± 0.03 µM; in data set [5], 0.15 ± 0.02 µM. Moreover, in data set [1] (K562/4, versus closest analogue of formula 6), the “activity toward K562/4 cells surpassing analogue of formula 6” value turned out to be 100 fold. In addition, the “activity toward K562/4 cells surpassing doxorubicin” value in data set [1] (K562/4, versus reference preparation doxorubicin) is approximately 50 fold. Also, the “RI, resistance index” value in data set [1] is on record as 2.0. Moreover, the “resistance index (RI) lower than doxorubicin” value in data set [1] (RI of compound versus RI of doxorubicin) is recorded as approximately 50 fold. Further, the selectivity ratio in data set [6] was in the range of 200 to 300. Moreover, in data set [7], the apoptosis induction result is “induced apoptosis”. Moreover, the “growth-inhibiting concentrations relative to the closest analogue of formula 6” value in data set [4] (all tested tumor cell lines) was “two orders of magnitude lower”. In data set [8], the antitumor effect entry was “reliable antitumor effect”.

For the molecule `COc1cccc2c1C(=O)c1c(O)c3c(c(O)c1C2=O)C[C@@](O)(C(=O)CO)C[C@@H]3O[C@H]1C[C@H](N)[C@H](O)[C@H](C)O1` [Doxorubicin, reference compound], the results for the IC50 in data set [1] and in data set [5] were 18.4 ± 2.2 µM and 0.18 ± 0.03 µM, respectively. Further, the “RI, resistance index” value in data set [1] was determined as 102.2.
